Test results: US6887712B1, “Methods and compositions to lower plasma cholesterol levels” (AtheroGenics, Inc., priority 1998, dated 2005)

Columns and labels:
purified human LDL = molecular target: T1, purified human LDL (Homo sapiens, UniProt P04114); test: Agarose electrophoresis of purified human LDL mixed with compound; assay type: binding
T1 construct: from tissue; host or cells: human LDL particles (plasma lipoprotein)
Method: Agarose electrophoresis is a technique used to separate and study lipoproteins. The monosuccinic acid ester of probucol was added to purified human LDL and the mixture was run on agarose electrophoresis.

[1] = molecular target: T2, specific epitope on apoB-100 of LDL (Homo sapiens, UniProt P04114); test: Immunoreactivity cell-free sandwich ELISA: binding of LDL to capture anti-apoB monoclonal antibody; conditions: for Cell-Free Assay: immunoreactivity cell-free assay of Example 3, yes/no
T2 construct: from tissue; host or cells: LDL particles (plasma lipoprotein)
From the text: To determine if the binding of the monosuccinic acid ester to VLDL and LDL can cause a change in the structure of apoB-100, an immunoreactivity assay was designed. This is a sandwich ELISA assay which measures the expression of a specific epitope on apoB-100. Essentially the sandwich ELISA consists of a specific monoclonal antibody directed to that epitope on apoB-100 as a capture antibody laid onto a microtitre plate. […] A second polyclonal antibody is then used to quantify the amount of LDL captured.
The detailed immunoreactivity protocol is as follows. A nunc maxi-sorp microtiter plate is coated overnight at 4° C. with 100 μl of Anti-Human ApoB monoclonal antibody from Boehringer Mannheim (catalog # 1533 975) diluted 1:1000 in PBS pH 7.4. The compounds are dissolved in DMSO with appropriate concentration of LDL for 15 minutes and incubated at 37° C.
The coated microtiter plate is washed three times with 200 μl PBS/0.05% tween, and a sample of 100 μl LDL/Compound or LDL standard is added to each well. The plates are then incubated for 2 hours at room temperature.
The microtiter plate is washed three times with 200 μl PBS/0.05% tween, and 100 μl of 1:2000 Polyclonal Human Anti-ApolipoproteinB from Boehringer Mannheim (catalog # 726 494) in PBS/tween 0.05% is added. The plate is incubated for one hour at room temperature.
The microtiter plate is washed three times with 200 ul PBS/0.05% tween, and 100 μl of 1:2000 Anti-Sheep Ig peroxidase from Boehringer Mannheim (catalog # 605 345) in PBS/05% tween is added. The plate is incubated for one hour at room temperature.
The microtiter plate is washed three times with 200 ul PBS/0.05% tween, and 100 μl of TMB substrate is added and incubated for 5-10 minutes in the dark. The reaction is stopped with 15 μl 8N H2SO4 and read on the Bio-Rad Microplate plate reader at 450 nm within 30 minutes.

apoB-100 epitope in VLDL = molecular target: T3, apoB-100 epitope in VLDL (Homo sapiens, UniProt P04114); test: Immunoreactivity sandwich ELISA with VLDL; assay type: binding; conditions: FIG. 6b
T3 construct: relative to the native VLDL; from tissue; host or cells: VLDL particles (plasma lipoprotein)
From the text: To determine if the binding of the monosuccinic acid ester to VLDL and LDL can cause a change in the structure of apoB-100, an immunoreactivity assay was designed. This is a sandwich ELISA assay which measures the expression of a specific epitope on apoB-100. Essentially the sandwich ELISA consists of a specific monoclonal antibody directed to that epitope on apoB-100 as a capture antibody laid onto a microtitre plate. LDL or VLDL added to the plate is bound to the antibody as a result of recognition of the specific epitope. A second polyclonal antibody is then used to quantify the amount of LDL captured.

HepG2 cells = test: Uptake of radioiodinated human LDL by HepG2 cells; assay type: cell-based; conditions: HepG2, 24 h
Method: In order to test whether the change in structure of LDL by the monosuccinic acid ester of probucol can affect the uptake of this lipoprotein by liver cells in vitro, purified human radioiodinated LDL was mixed with various concentrations of the probucol derivative and incubated for 15 minutes at room temperature. After that, the mixture of LDL and the probucol derivative was added to HepG2 cells in culture and the uptake of radiolabeled LDL measured after 24 h. At each concentration of compound, the specific uptake of LDL was also determined by examining LDL uptake in the presence of excess unlabeled LDL.

[2] = molecular target: T4, other epitopes on LDL apoB-100 (Homo sapiens, UniProt P04114); test: Epitope specificity: four other monoclonal antibodies (1D, 2D8, 5E11, 4G3) against apoB-100 on LDL; assay type: binding
T4 construct: from tissue; host or cells: LDL particles (plasma lipoprotein)
From the text: The specificity of epitope expression changes by the monosuccinic acid ester of probucol were established by examining MSE's effects on other epitopes on LDL. This was probed by using four other monoclonal antibodies (1D, 2D8, 5E11, 4G3) in comparison to the Boehringer Mannheim (Band M) antibody used in the assays described above.

VLDL and LDL clearance = test: Lipoprotein turnover study in monkeys (stable isotope labelling of apoB-100); assay type: in vivo, monkey
Method: A lipoprotein turnover study was performed in monkeys that were dosed with the monosuccinic acid ester of probucol (25 mg/kg/day for one four weeks). The clearance rates of VLDL and LDL were examined before and after treatment of the animals using a stable isotope technique to label apoB-100 in VLDL and LDL.

total plasma cholesterol = test: Cholesterol lowering in mice lacking functional LDL receptors; assay type: in vivo, mouse; conditions: LDL receptor-deficient mice, 150 mg/kg/day oral with high fat/high cholesterol diet, 12 weeks
Method: To explore whether the enhanced clearance is mediated by the tissue LDL receptors, the major clearance mechanism for LDL in the body, the LDL lowering activity of the monosuccinic acid ester of probucol was tested in a mouse model that lacks functional LDL receptors (eliminated through genetic engineering).

plasma cholesterol = test: Plasma cholesterol lowering in hamsters; parameters: species or system hamster; conditions: ability to lower plasma cholesterol in vivo in hamsters, yes/no
Method: The monosuccinic acid ester of probucol and several other compounds were tested in vitro in the immunoreactivity cell-free assay described above in Example 3 and in vivo in hamsters for their ability to lower plasma cholesterol.

[3] = rabbit, in vivo, po, 150 mg/kg/day
Method: To examine if the monosuccinic acid ester of probucol partitions with plasma circulating lipoproteins, rabbits were fed a high-fat diet for six weeks and dosed with the compound at a dose of 150 mg/Kg per day orally. The animals were bled at six weeks and plasma lipoproteins isolated at high-speed using ultra-centrifugation.
Whole plasma was fractionated by fast phase liquid chromatography (FPLC) using a Superose 6HR 10/30 column. Elution was performed in a phosphate-buffered saline solution containing 0.01% EDTA and 0.02% NaN3 at a flow rate of 0.3 m/min. Approximately 0.6 ml was collected for each fraction and 20 fractions were available for analysis. The cholesterol content of the peaks corresponding to low density lipoprotein (LDL) and high density lipoprotein (HDL) were compared to CDC reference methods. VLDL corresponds to fractions 4-8 (elution volumes 7.2-9.6), LDL to fractions 9-16 (elution volume 10.2-14.4) and HDL to fractions 17-23 (elution volume 15-18.6).
The monosuccinic acid ester of probucol (MSE) levels in the different lipoprotein fractions were determined by high pressure liquid chromatography (HPLC) using a Rainin C 18 column (830201-C). Fractions corresponding to the different lipoprotein fractions were pooled and dried down by centrifugation under vacuum and resuspended in 0.5 ml of phosphate buffered saline. MSE was extracted with 0.5 ml of ether. 100 ul of the ether solution was added to 400 ul of acetonitrile and 0.02 ml was loaded onto the column. The mobile phase was 75:20:5 acetonitrile, methanol, and 50 mM acetic acid in methanol.
The amount of the MSE bound to each of the lipoproteins was estimated.

[4] = system: LDL cholesterol, HDL, plasma triglycerides; conditions: human, in vivo; cited from earlier work

T2 sequence (P04114 28-4563): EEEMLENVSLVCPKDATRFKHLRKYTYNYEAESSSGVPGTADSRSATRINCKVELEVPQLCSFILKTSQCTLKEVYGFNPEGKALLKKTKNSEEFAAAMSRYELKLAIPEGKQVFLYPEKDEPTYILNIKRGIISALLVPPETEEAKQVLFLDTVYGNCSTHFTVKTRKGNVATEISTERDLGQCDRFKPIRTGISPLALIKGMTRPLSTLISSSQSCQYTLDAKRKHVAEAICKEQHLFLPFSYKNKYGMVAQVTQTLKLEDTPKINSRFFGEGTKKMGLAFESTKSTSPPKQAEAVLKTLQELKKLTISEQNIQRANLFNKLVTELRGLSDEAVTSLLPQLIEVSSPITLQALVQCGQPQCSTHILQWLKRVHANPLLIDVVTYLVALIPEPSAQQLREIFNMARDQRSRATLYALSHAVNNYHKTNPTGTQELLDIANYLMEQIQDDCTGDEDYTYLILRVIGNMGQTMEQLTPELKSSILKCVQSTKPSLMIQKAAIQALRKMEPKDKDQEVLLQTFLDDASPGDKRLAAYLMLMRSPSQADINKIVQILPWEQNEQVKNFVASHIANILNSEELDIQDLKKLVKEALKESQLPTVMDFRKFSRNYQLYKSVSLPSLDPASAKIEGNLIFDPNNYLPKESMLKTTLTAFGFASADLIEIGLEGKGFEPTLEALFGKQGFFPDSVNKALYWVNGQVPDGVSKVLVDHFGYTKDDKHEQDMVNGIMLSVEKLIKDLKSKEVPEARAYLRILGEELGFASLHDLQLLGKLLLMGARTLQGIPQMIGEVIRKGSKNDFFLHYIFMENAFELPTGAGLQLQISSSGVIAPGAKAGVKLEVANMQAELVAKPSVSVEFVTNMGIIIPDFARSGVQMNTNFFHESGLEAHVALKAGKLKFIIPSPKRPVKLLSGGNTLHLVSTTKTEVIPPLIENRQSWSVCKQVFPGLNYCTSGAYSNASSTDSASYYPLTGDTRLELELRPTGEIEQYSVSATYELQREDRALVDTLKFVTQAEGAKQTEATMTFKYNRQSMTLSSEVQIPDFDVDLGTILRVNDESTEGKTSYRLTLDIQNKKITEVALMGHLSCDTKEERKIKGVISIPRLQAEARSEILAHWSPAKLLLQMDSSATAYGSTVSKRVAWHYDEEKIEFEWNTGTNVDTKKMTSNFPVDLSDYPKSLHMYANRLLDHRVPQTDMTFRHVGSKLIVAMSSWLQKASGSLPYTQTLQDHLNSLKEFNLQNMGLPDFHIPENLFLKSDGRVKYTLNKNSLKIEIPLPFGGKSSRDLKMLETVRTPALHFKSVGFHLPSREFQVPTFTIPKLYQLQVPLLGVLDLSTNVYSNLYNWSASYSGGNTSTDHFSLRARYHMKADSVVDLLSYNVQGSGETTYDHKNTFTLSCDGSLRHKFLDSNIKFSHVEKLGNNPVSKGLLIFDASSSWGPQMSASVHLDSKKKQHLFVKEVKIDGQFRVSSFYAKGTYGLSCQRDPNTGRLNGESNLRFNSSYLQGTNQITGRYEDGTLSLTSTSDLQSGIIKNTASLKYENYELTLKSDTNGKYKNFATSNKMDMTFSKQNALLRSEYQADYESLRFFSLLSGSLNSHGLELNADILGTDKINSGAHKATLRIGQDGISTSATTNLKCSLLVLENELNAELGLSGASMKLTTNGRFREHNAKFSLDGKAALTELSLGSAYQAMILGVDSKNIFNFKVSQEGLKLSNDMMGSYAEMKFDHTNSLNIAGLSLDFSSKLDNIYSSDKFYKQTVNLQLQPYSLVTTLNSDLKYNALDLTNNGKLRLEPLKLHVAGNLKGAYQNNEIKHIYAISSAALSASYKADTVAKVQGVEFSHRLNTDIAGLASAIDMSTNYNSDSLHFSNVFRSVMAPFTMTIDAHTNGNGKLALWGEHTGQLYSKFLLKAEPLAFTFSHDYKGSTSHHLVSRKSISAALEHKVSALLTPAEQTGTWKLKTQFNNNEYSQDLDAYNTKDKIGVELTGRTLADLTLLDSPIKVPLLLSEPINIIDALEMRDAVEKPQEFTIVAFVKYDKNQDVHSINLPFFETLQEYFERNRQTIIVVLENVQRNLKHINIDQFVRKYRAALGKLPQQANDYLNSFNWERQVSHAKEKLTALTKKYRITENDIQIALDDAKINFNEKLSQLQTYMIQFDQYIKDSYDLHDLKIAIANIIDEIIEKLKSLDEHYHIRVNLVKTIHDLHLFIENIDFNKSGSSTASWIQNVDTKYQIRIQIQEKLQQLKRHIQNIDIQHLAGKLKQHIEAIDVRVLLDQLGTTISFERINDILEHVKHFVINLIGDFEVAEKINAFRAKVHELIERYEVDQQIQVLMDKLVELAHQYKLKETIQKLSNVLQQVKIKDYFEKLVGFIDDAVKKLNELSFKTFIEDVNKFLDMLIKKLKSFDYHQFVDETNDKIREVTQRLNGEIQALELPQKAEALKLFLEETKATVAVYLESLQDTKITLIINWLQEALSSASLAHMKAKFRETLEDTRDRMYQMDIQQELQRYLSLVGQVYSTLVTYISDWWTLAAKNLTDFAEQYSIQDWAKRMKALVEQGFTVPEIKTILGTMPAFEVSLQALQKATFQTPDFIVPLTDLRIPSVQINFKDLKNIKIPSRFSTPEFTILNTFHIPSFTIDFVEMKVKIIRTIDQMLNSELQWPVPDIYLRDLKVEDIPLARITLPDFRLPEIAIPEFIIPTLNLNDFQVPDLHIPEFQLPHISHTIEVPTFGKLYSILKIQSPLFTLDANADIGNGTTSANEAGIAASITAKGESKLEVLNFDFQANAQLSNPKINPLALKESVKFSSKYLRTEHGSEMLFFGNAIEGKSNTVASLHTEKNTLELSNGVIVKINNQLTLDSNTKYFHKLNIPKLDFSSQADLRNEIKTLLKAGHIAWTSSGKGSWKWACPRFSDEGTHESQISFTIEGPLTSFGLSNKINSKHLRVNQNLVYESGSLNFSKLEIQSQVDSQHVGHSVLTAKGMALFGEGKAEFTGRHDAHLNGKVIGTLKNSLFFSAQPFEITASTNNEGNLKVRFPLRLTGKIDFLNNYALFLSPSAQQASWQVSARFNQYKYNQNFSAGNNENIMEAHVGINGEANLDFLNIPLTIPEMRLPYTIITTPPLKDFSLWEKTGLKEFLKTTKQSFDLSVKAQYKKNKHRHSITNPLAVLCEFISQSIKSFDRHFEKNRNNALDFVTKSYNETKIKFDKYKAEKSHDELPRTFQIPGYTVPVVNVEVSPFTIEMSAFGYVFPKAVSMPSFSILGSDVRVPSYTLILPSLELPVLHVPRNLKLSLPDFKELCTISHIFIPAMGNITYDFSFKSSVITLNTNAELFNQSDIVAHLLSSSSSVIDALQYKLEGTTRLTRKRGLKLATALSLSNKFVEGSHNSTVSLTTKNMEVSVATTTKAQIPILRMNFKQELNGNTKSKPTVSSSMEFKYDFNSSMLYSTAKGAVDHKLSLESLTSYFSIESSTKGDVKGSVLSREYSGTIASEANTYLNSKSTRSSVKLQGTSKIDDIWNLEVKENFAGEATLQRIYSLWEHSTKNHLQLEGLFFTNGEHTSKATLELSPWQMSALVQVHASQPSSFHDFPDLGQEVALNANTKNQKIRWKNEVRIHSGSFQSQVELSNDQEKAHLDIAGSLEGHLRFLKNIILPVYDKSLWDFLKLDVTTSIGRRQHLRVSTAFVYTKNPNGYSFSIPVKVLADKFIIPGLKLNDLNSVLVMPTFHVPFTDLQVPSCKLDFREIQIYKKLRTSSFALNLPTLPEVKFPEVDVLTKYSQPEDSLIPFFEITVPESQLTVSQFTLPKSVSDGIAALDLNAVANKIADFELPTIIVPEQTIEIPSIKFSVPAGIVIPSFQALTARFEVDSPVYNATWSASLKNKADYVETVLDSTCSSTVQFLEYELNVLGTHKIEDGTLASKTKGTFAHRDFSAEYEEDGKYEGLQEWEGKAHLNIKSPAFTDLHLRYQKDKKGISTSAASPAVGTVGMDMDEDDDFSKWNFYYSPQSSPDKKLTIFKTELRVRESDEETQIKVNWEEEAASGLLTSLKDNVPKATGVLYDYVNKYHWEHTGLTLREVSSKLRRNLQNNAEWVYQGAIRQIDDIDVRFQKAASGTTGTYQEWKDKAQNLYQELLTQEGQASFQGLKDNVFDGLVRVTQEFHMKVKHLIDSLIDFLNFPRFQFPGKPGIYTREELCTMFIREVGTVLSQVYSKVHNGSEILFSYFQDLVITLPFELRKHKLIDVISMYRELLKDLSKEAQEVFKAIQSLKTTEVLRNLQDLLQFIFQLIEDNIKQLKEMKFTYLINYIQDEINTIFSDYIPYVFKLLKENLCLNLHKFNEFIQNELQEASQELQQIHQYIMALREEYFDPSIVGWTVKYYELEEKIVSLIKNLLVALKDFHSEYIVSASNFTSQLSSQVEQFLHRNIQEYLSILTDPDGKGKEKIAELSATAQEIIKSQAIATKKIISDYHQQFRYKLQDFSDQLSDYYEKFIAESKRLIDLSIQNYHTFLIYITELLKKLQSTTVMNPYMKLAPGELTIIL
T1 sequence (P04114 28-4563): as above
T4 sequence (P04114 28-4563): as above
T3 sequence (P04114 28-4563): as above

**Q.** For `CC(C)(Sc1cc(C(C)(C)C)c(O)c(C(C)(C)C)c1)Sc1cc(C(C)(C)C)c(OC(=O)CCC(=O)O)c(C(C)(C)C)c1` [MSE, Butanedioic acid, mono[4-[[1-[[3,5-bis(1,1-dimethylethyl)-4-hydroxyphenyl]thio]-1-methylethyl]thio]-2,6-bis(1,1-dimethylethyl)phenyl] ester], which “shift of electrophoretic mobility of LDL” value (purified human LDL) is on record?
**A.** shifted the mobility of LDL

**Q.** And the “increase of binding of LDL to the capture monoclonal antibody” value ([1]; 15 uM)?
**A.** 300%

**Q.** And the “increase of binding of LDL to the capture monoclonal antibody” value ([1]; 30 uM)?
**A.** 500%

**Q.** What about the “epitope expression on LDL detected by the Boehringer Mannheim antibody” value ([1]; FIG. 7) of the same molecule?
**A.** significantly enhanced

**Q.** And the “Cell-Free Assay” value [1]?
**A.** yes

**Q.** What about the “increase of binding of VLDL apoB-100 epitope to the antibody relative to native VLDL” value (apoB-100 epitope in VLDL) of the same molecule?
**A.** about 375%

**Q.** And the “increase of specific uptake of LDL relative to absence of MSE” value (HepG2 cells; 18 uM)?
**A.** 12.8%

**Q.** What about the “increase of specific uptake of LDL relative to absence of MSE” value (HepG2 cells; 25.5 uM) of the same molecule?
**A.** 77.6%

**Q.** And the “increase of specific uptake of LDL relative to absence of MSE” value (HepG2 cells; 33 uM)?
**A.** 249%

**Q.** And the “expression of epitopes detected by the other four antibodies against apoB-100” value [2]?
**A.** unaffected

**Q.** And the LDL clearance rates (VLDL and LDL clearance; monkeys, 25 mg/kg/day)?
**A.** increased

**Q.** And the “clearance of VLDL after treatment relative to before dosing” value (VLDL and LDL clearance; monkeys, 25 mg/kg/day)?
**A.** marked enhancement

**Q.** What about the “production of VLDL or LDL” value (VLDL and LDL clearance; monkeys, 25 mg/kg/day) of the same molecule?
**A.** no apparent effects

**Q.** And the “effect on total plasma cholesterol levels” value (total plasma cholesterol)?
**A.** did not result in any significant effects

**Q.** What about the Hamster (plasma cholesterol) of the same molecule?
**A.** yes

**Q.** What about the “MSE recovered in the different lipoprotein fractions” value [3] of the same molecule?
**A.** > 80%

**Q.** And the “amount found in the non-lipoprotein plasma fraction” value [3]?
**A.** Very little

**Q.** What about the “distribution of MSE among lipoprotein fractions” value [3] of the same molecule?
**A.** most being found in the VLDL fraction, followed by LDL and some in IDL and HDL

**Q.** With `CC(C)(Sc1cc(C(C)(C)C)c(O)c(C(C)(C)C)c1)Sc1cc(C(C)(C)C)c(O)c(C(C)(C)C)c1` [probucol, 4,4′-(isopropylidenedithio) bis(2,6-di-tert-butylphenol), reference compound] as the molecule, how does the “shift of electrophoretic mobility of LDL” value (purified human LDL) read?
**A.** did not shift the mobility of LDL

**Q.** And the “effect on binding of LDL to the capture monoclonal antibody (FIG. 6a)” value [1]?
**A.** no significant effect

**Q.** And the “effect on clearance of VLDL (general statement)” value (VLDL and LDL clearance; no species or dose stated)?
**A.** little effect

**Q.** What about the “lowering of plasma cholesterol” value (total plasma cholesterol) of the same molecule?
**A.** 17%

**Q.** And the “effect on plasma triglycerides” value [4]?
**A.** no effect

**Q.** With `CC(C)(Sc1cc(C(C)(C)C)c(O)c(C(C)(C)C)c1)Sc1cc(C(C)(C)C)c(OC(=O)CCCC(=O)O)c(C(C)(C)C)c1` [pentanedioic acid, mono[4-[[1-[3,5-bis(1,1-dimethylethyl)-4-hydroxyphenyl]thio]1-methylethyl]thio-2,6-bis(1,1-dimethylethyl)phenyl]ester] as the molecule, how does the “Cell-Free Assay” value [1] read?
**A.** yes

**Q.** And the Hamster (plasma cholesterol)?
**A.** yes

**Q.** Which results are given for `CC(C)(Sc1cc(C(C)(C)C)c(O)c(C(C)(C)C)c1)Sc1cc(C(C)(C)C)c(OCC(O)C(O)C(O)C(=O)O)c(C(C)(C)C)c1` (stereo not drawn) [5-[4-[[1-[[3,5-bis(1,1-dimethylethyl)-4-hydroxyphenyl)thio]-1-methylethyl]thioo-2,6-bis(1,1-dimethylethyl)phenoxy-2,3,4-trihydroxy-pentanoic acid]?
**A.** Cell-Free Assay [1]: yes; Hamster (plasma cholesterol): no

**Q.** What does the source list for `CC(C)(C)c1cc(SCc2ccc(OC(=O)c3ccccc3)cc2)cc(C(C)(C)C)c1O` [4-[(3,5-di-tert-butyl-4-hydroxyphenylthio)methyl]phenyl benzoate]?
**A.** Cell-Free Assay [1]: yes; Hamster (plasma cholesterol): yes

**Q.** Which “Cell-Free Assay” value [1] does the source give for `CC(C)(Sc1cc(C(C)(C)C)c(O)c(C(C)(C)C)c1)Sc1cc(C(C)(C)C)c(OCC(O)C(O)C(O)C(O)CO)c(C(C)(C)C)c1` (stereo not drawn) [probucol-2,3,4,5,6-pentahydroxyhexyl ether] here?
**A.** yes

**Q.** What about the Hamster (plasma cholesterol) of the same molecule?
**A.** yes

**Q.** Which “Cell-Free Assay” value [1] does the source give for `CC(C)(C)c1cc(SCc2cccc(C(F)(F)F)c2)cc(C(C)(C)C)c1O` [2,6-di-tert-butyl-4-[(3-trifluoromethyl)benzylthio]phenol] here?
**A.** no

**Q.** And the Hamster (plasma cholesterol)?
**A.** yes

**Q.** Which results are given for `CC(C)(C)c1cc(SCc2ccc([N+](=O)[O-])cc2[N+](=O)[O-])cc(C(C)(C)C)c1O` [2,6-di-tert-butyl-4-[(2,4-dinitrobenzyl)thio]phenol]?
**A.** Cell-Free Assay [1]: no; Hamster (plasma cholesterol): no

**Q.** With “Mono[4-(3,5-di-tert-butyl-4-hydroxybenzyl)-2,6-di-tert-butylphenyl]glutarate” as the molecule, how does the “Cell-Free Assay” value [1] read?
**A.** no

**Q.** What about the Hamster (plasma cholesterol) of the same molecule?
**A.** no

**Q.** With “Mono[4-(3,5-di-tert-butyl-4-hydroxyphenacylthio)-2,6-di-tert-butylphenyl] succinate” as the molecule, how does the “Cell-Free Assay” value [1] read?
**A.** yes

**Q.** And the Hamster (plasma cholesterol)?
**A.** no
